These results are taken from ChEMBL document CHEMBL1128401, “Structure-activity relationships in the 8-amino-6,7,8,9-tetrahydro-3H-benz[e]indole ring system. 1. Effects of substituents in the aromatic system on serotonin and dopamine receptor subtypes” (J Med Chem, 1995).

Active and inactive are the calls of the source. The rule behind the calls is not given here.

Data set [1] concerns the target T1, D(2) dopamine receptor (Rattus norvegicus, UniProt P61169). Put plainly: Binding affinity against Dopamine receptor D2 from CHO-K1 cells, using [3H]U-86,170 as the radioligand. The data set is classed as cell-based.
Data set [2] deals with T2, D(3) dopamine receptor (Rattus norvegicus, UniProt P19020). Put plainly: Binding affinity against Dopamine receptor D3 from CHO-K1 cells, using [3H]spiperone as the radioligand. The data set is classed as cell-based. As to conditions: read-out: Ki.
T2 sequence (P19020 whole entry): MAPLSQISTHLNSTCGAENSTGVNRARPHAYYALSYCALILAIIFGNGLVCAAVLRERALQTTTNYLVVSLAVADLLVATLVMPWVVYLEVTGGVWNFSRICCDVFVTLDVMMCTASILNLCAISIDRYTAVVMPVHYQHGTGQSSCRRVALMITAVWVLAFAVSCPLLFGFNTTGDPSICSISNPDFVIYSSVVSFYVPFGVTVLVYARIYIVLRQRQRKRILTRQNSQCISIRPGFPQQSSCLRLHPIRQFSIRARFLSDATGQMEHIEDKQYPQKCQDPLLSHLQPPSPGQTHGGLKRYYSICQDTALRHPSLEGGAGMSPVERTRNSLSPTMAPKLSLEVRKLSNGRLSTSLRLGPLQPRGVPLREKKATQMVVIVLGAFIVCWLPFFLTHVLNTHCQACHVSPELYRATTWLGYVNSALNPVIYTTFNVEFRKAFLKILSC
In data set [3] the target is 5-hydroxytryptamine receptor 1B (Homo sapiens, UniProt P28222). Put plainly: Binding affinity against 5-hydroxytryptamine 1D receptor beta expressed in CHO-K1 cells, using [3H]5-HT as the radioligand. The data set is classed as cell-based.
Sequence of 5-hydroxytryptamine receptor 1B (P28222 whole entry): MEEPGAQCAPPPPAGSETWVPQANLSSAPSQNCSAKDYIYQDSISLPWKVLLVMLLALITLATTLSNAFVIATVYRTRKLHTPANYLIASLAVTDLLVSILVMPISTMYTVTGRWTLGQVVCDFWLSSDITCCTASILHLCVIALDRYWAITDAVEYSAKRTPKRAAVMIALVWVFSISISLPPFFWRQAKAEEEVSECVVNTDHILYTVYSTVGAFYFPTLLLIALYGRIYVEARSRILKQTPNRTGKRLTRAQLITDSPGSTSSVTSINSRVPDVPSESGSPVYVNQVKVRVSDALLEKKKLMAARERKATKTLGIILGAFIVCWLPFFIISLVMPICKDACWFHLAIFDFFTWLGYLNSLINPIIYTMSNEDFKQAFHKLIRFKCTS
For data set [4], the target named is 5-hydroxytryptamine receptor 1D (Homo sapiens, UniProt P28221). Nature of the data set: Binding affinity against 5-hydroxytryptamine 1D receptor alpha expressed in CHO-K1 cells, using [3H]-5-HT as the radioligand. The data set is classed as cell-based. As to conditions: read-out: Ki.
Sequence of 5-hydroxytryptamine receptor 1D (P28221 whole entry): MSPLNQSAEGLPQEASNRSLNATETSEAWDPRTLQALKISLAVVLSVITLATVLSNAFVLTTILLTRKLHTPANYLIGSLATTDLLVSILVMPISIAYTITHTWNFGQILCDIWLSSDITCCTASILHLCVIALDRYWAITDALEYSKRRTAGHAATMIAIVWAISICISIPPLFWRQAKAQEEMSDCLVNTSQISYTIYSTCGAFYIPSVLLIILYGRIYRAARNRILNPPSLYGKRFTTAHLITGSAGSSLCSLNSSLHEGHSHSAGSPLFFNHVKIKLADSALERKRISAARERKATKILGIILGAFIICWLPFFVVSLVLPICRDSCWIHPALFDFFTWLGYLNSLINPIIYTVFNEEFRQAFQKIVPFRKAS
In data set [5] the target is T3, 5-hydroxytryptamine receptor 1A (Rattus norvegicus, UniProt P19327).
T3 sequence (P19327 whole entry): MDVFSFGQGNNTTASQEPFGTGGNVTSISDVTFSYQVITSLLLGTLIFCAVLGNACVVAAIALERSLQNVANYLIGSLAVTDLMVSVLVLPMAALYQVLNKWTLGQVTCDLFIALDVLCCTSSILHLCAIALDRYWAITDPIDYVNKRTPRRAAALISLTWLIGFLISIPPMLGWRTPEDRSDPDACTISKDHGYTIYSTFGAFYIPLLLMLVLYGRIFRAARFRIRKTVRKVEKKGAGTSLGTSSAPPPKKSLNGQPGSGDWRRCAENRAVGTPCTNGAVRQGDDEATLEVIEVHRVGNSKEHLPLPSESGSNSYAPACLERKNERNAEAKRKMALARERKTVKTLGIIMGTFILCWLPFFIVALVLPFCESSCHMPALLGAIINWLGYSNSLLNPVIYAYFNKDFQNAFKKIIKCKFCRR
Nature of the data set: Binding affinity against 5-hydroxytryptamine 1A receptor from CHO-K1 cells, using [3H]8-OH-DPAT as the radioligand. The data set is classed as cell-based.

The subject of data set [6] is Rattus norvegicus. Put plainly: In vivo for DOPA accumulation in corpus striatum against reserpine-pretreated rats. The data set is classed as functional.
The subject of data set [7] is Rattus norvegicus. Put plainly: In vivo for 5-HTP accumulation in limbic system against reserpine-pretreated rats. The format is functional.
For data set [8], the system named is Rattus norvegicus. Put plainly: In vivo for 5-HTP accumulation in corpus striatum against reserpine-pretreated rats. The data set is classed as functional.
Data set [9] relates to Rattus norvegicus. Nature of the data set: In vivo for DOPA accumulation in limbic system against reserpine-pretreated rats. The format is functional.
The test system of data set [10] is Rattus norvegicus. Put plainly: The Compound was tested in vivo for DOPA accumulation in hemispheres (cortex) against reserpine-pretreated rats;I= inactive at the highest dose (12.5). The format is functional, organism-based.
In data set [11] the test system is Rattus norvegicus. Nature of the data set: In vivo for 5-HTP accumulation in hemispheres (cortex) against reserpine-pretreated rats. The data set is classed as functional.
The test system of data set [12] is Rattus norvegicus. Put plainly: The Compound was tested in vivo for DOPA accumulation in hemispheres (cortex) against reserpine-pretreated rats; I=inactive at the highest dose tested (3.1). The data set is classed as functional, organism-based.
The target of data set [13] is T1, D(2) dopamine receptor. Nature of the data set: Binding affinity against Dopamine receptor D2 expressed in CHO-K1 cells, using [3H]U-86170 as the radioligand. The format is cell-based.
The target in data set [14] is T2, D(3) dopamine receptor. Nature of the data set: Binding affinity against Dopamine receptor D3 expressed in CHO-K1 cells, using [3H]spiperone as the radioligand. The data set is classed as cell-based.
Data set [15] deals with Rattus norvegicus. Put plainly: The Compound was tested in vivo for DOPA accumulation in hemispheres (cortex) against reserpine-pretreated rats; P=significant partial reduction only at the highest dose tested (50). The format is functional, organism-based.
Data set [16] concerns Rattus norvegicus. Put plainly: Bioavailability in male Sprague-Dawley rats, after the iv administration at a dose of 2.0(pmol/g/h). The format is ADME, organism-based. The following applies: in vivo.
The subject of data set [17] is Rattus norvegicus. Put plainly: Bioavailability in male Sprague-Dawley rats, after the po administration at a dose of 10.0(pmol/g/h). The data set is classed as ADME, organism-based. As to conditions: in vivo.
Data set [18] is described as follows: tmax in hours at a iv dose of 2.0(pmol/g/h). The data set is classed as ADME, organism-based. The following applies: in vivo.
The nature of data set [19]: tmax in hours at a po dose of 10.0(pmol/g/h). The format is ADME, organism-based. As to conditions: in vivo.
The nature of data set [20]: Bioavailability in rat plasma following iv/po dose. The data set is classed as ADME, organism-based.
Data set [21] has as its target T1, D(2) dopamine receptor. As to conditions: cho-k1.
For data set [22], the target named is T2, D(3) dopamine receptor. Nature of the data set: Compound was tested for binding affinity against Dopamine receptor D3 expressed in CHO-K1 cells, using [3H]spiperone as the radioligand; I= inactive at the highest dose tested (12.5). The data set is classed as cell-based.
Data set [23] deals with Rattus norvegicus. Put plainly: The Compound was tested in vivo for DOPA accumulation in hemispheres (cortex) against reserpine-pretreated rats; I=inactive at the highest dose tested (50). The format is functional, organism-based.
The subject of data set [24] is Rattus norvegicus. Put plainly: The Compound was tested in vivo for DOPA accumulation in limbic system against reserpine-pretreated rats; P=significant partial reduction only at the highest dose tested (50). The data set is classed as functional, organism-based.
Data set [25] concerns Rattus norvegicus. Nature of the data set: Compound was tested in vivo for DOPA accumulation in corpus striatum against reserpine-pretreated rats;P= significant partial reduction only at the highest dose tested (50). The format is functional, organism-based.
Data set [26] has as its system Rattus norvegicus. Put plainly: The Compound was tested in vivo for DOPA accumulation in hemispheres (cortex) against reserpine-pretreated rats;I= inactive at the highest dose tested (50). The format is functional, organism-based.

T1 sequence (P61169 whole entry): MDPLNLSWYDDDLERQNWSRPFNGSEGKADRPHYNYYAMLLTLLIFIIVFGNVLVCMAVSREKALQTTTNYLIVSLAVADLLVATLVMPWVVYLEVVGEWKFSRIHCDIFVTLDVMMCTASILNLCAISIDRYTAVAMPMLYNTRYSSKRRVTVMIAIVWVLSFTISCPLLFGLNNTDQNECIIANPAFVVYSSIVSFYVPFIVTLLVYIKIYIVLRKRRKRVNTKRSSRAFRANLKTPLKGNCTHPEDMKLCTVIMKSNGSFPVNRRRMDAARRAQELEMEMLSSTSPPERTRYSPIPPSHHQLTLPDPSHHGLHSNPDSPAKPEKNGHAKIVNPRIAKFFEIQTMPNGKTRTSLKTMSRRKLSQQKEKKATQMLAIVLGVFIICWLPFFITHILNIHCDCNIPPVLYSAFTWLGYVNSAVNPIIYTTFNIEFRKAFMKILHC

Regarding `CCCN(CCC)C1CCc2cc(F)c3c(ccn3C)c2C1` (configuration not stated), the Ki – broadly, a measure of affinity in units of concentration, obtained from inhibition or displacement – was 86 nM at D(2) dopamine receptor [1]; 52 nM at D(3) dopamine receptor [2]; 1650 nM in data set [3] (read-out: Ki); 217 nM in [4]; 250 nM in data set [5].
As to `CCCN(CCC)[C@@H]1CCc2cc(F)c3[nH]ccc3c2C1`, the ED50 – broadly, the dose at which the effect has come halfway, by size or by number of responders – stood at 0.63 µmol/kg in the data set on Rattus norvegicus [6]; 0.53 µmol/kg with Rattus norvegicus [7]; 0.7 µmol/kg in the data set on Rattus norvegicus [8]; 0.49 µmol/kg in the data set with Rattus norvegicus [9]; 0.51 µmol/kg in the data set on Rattus norvegicus [11]. In addition, the Ki at D(2) dopamine receptor [1] is 7.8 nM; in [3] (read-out: Ki), 142 nM; in [5], 1.5 nM. Further, the ED50 result with Rattus norvegicus [10] was “inactive”.
In the case of `CCCN(CCC)[C@@H]1CCc2ccc3[nH]ccc3c2C1`, the ED50 in the data set with Rattus norvegicus [7] is 0.21 µmol/kg; with Rattus norvegicus [8] it was 0.17 µmol/kg; with Rattus norvegicus [9], 0.15 µmol/kg. The ED50 result in the data set on Rattus norvegicus [12] is “inactive”. The Ki in data set [3] (read-out: Ki) was determined as 139 nM; on D(2) dopamine receptor [13], 7.4 nM; in data set [4], 16 nM; on D(3) dopamine receptor [14], 30 nM.
In the case of `CCCN(CCC)C1CCc2ccc3[nH]cc(Cl)c3c2C1` (configuration not stated), the ED50 entry in the data set with Rattus norvegicus [15] was “Weak activity”. In addition, the Ki result in data set [3] (cho-k1) is “Not Active”; on D(2) dopamine receptor [13], 9.8 nM; in data set [4], 23 nM; on D(3) dopamine receptor [14], 15 nM; in [5] it was 2 nM.
On to `CN(C)[C@@H]1CCc2ccc3[nH]ccc3c2C1`, for which the values for the AUC with Rattus norvegicus [16] and with Rattus norvegicus [17] were 431 pM ml-1 and 848 pM ml-1, respectively. In addition, the Tmax (usually the time from dosing to the highest level) in data set [18] stood at 2 h. This molecule gave a T max in data set [19] of 150 h. Besides, the bioavailability (usually dose-corrected exposure relative to a reference, in per cent) in data set [20] was 46%.
As to `CCCN(CCC)[C@H]1CCc2ccc3[nH]cc(C(=O)C(N)=O)c3c2C1`, the Ki entry on D(2) dopamine receptor [21] is “Not Active”; in [3] (read-out: Ki), 1100 nM; at D(3) dopamine receptor [22], “Not Active”; in data set [4], 440 nM; in data set [5], 49 nM.
For `CCCc1c[nH]c2c(F)cc3c(c12)CC(N(CCC)CCC)CC3` (configuration not stated), the Ki on D(2) dopamine receptor [1] is 5.9 nM; on D(3) dopamine receptor [2], 111 nM; in data set [3] (read-out: Ki), 177 nM; in data set [4] it was 8.4 nM; in data set [5] it was 11 nM.
Turning to `CCCN(CCC)C1CCc2ccc3c(c2C1)CC(=O)N3` (configuration not stated), the ED50 came to 0.25 µmol/kg in the data set with Rattus norvegicus [6]; 0.45 µmol/kg in the data set with Rattus norvegicus [7]; 0.41 µmol/kg in the data set with Rattus norvegicus [8]; 0.17 µmol/kg with Rattus norvegicus [9]; 0.86 µmol/kg with Rattus norvegicus [11]. The Ki came out at 11 nM at D(2) dopamine receptor [1]; 23 nM at D(3) dopamine receptor [2]; 194 nM in data set [3] (read-out: Ki); 26 nM in data set [4]; 14 nM in data set [5]. Further, the ED50 entry with Rattus norvegicus [23] is “inactive”.
For the molecule `CCCN(CCC)C1CCc2ccc3[nH]cc(C)c3c2C1` (configuration not stated), the values for the Ki (in [4]; on D(3) dopamine receptor [14]) were 43 nM and 67 nM, respectively.
Take `CCCN(CCC)C1CCc2ccc3[nH]cc(C(C)=O)c3c2C1` (configuration not stated): the ED50 result was “Weak activity” in the data set on Rattus norvegicus [24]; 15.5 µmol/kg in the data set on Rattus norvegicus [7]; “Weak activity” in the data set on Rattus norvegicus [25]; 16 µmol/kg in the data set with Rattus norvegicus [8]; 13 µmol/kg in the data set with Rattus norvegicus [11]. In addition, the Ki in data set [3] (read-out: Ki) worked out at 587 nM; on D(2) dopamine receptor [13] it was 206 nM; in data set [4], 108 nM; at D(3) dopamine receptor [14] it was 320 nM; in data set [5], 14 nM. The ED50 result with Rattus norvegicus [26] is “inactive”.
